What was measured:
[1] = system: orthotopic MCF7 human breast cancer cell line xenograft; test: Anti-tumor efficacy against orthotopic MCF7 human breast cancer cell line xenograft in NOD/SCID mice; format: in vivo, female NOD/SCID mice; conditions: for Tumor volume changes from baseline: Median: amcenestrant 10 mg/kg BID, everolimus 10 mg/kg BIW; for Regressions Complete: animals with complete regression / animals in group; for Regressions Complete / Regressions Partial / Median % of regressions on day 28 / ΔT/ΔC in % at day 28: amcenestrant 10 mg/kg PO BID, everolimus 10 mg/kg PO BIW; for Regressions Partial: animals with partial regression / animals in group; for Biological Interpretation: based on ΔT/ΔC at day 28; for ΔT/ΔC in % at day 28: 28 days
Method: In the present study, the anti-tumor efficacy of amcenestrant combined with everolimus was investigated after 28 days treatment against an orthotopic MCF7 human breast cancer cell line xenograft in female NOD/SCID mice.
The treated groups included amcenestrant at 10 mg/kg alone, everolimus at 10 mg/kg alone, and the combination of amcenestrant and everolimus at the same dose and regime.
For 28 days, amcenestrant was orally dosed twice a day (BID), and everolimus was orally dosed twice a week (BIW). Anti-tumor efficacy was evaluated by tumor volume measurement.
Female NOD/SCID mice were obtained from GemPharmatech Co., Ltd (Nanjing University National Resource Center for Mutant Mice, Model Animal Research Center) (Nanjing, CHINA). Animals were allowed to acclimate for at least four days before the study enrollment. Mice were 7 to 8 weeks old and weighed between 22.5 and 28.4 grams at the beginning of the treatments. These animals were housed under conditions outlined in the guidelines approved by the Institutional Animal Care and Use Committee (IACUC) of CrownBio following the guidance of the Association for Assessment and Accreditation of Laboratory Animal Care (AAALAC).
MCF7 cells were obtained from the American Type Culture Collection (ATCC® HTB-22™). The MCF7 tumor cells were maintained in vitro with MEM medium supplemented with 10% fetal bovine serum, 0.01 mM non-essential amino acid, 0.01 mg/ml bovine insulin, and 2 mM L-glutamine at 37° C. in an atmosphere of 5% CO2 in air. The cells in exponential growth phase were harvested and quantitated by cell counter before tumor inoculation.
The mouse was subcutaneously implanted with estrogen pellets (0.18 mg/pellet, 17β-estradiol, Innovative Research of America, Sarasota, Florida, USA), hereafter referred to as “E2 supplement”, at the right flank one day before the tumor inoculation. Each mouse was inoculated with MCF-7 tumor cells (2×10 e7) in 0.25 ml of PBS/Matrigel (1:1) mixture at the right mammary fat pad for tumor development.
Everolimus (Manufacturer: Selleck; Lot number: S1120) was formulated in 30% propylene glycol (dissolve first): 5% Tween 80: 65% ddH2O (double distilled water).
Dose volume for amcenestrant and everolimus for oral administration: 10 ml/kg.
Doses: amcenestrant at 10 mg/kg and everolimus at 10 mg/kg in the above volume.
Animal body weight was assessed daily.
Vehicle treated animals were used as controls.
The primary efficacy end points include tumor volume changes from baseline summarized by the ratio of medians of tumor volume changes from baseline between the treated and control groups (ΔT/ΔC). Changes in tumor volume for each treated (T) and control (C) group were calculated for each animal on each day by subtracting the tumor volume on the day of first treatment (staging day) from the tumor volume on the specified observation day. The median ΔT was calculated for the treated group and the median ΔC was calculated for the control group. The ratio ΔT/ΔC was calculated and expressed as percentage: […]
Percent tumor regression is defined as % (percentage) of tumor volume decrease in the treated group on a specified observation day compared to its volume when the study was initiated. At a specific time point (t) and for each animal, the regression percentage was calculated using the following formula: […]
The median percent regression for a group on a given day was then calculated by taking the median of individual % regression values calculated for each animal in the group. The day of calculation was determined by the day when ΔT/ΔC is calculated, except if median percent regression was not representative of the activity of the group. In this case, the day was determined by the first day when the median percent regression was maximal.
A two-way analysis of variance (ANOVA) with factors treatment and day (repeated) was performed on tumor volume changes from baseline.

[2] = amcenestrant 10 mg/kg BID, everolimus 10 mg/kg BIW, 28 days
Method: The animals required for experiment (plus extra) were pooled and implanted with MCF7 cells. On day 0 (12 days post implantation), the mice were pooled and randomly distributed to the treatment and control groups (10 mice per group), where median tumor volumes for each group was 119 mm^3. Treatments of amcenestrant and everolimus were initiated on day 1. For 28 days, amcenestrant was orally administered at 10 mg/kg BID (8 hours apart), and everolimus was orally administered at 10 mg/kg BIW. Animal body weight was assessed daily.
The dosages are expressed in mg/kg and based on daily body weight per animal. Vehicle treated animals were used as controls. Mice were checked daily for adverse clinical reactions. Individual mice were weighed daily until the end of the experiment. Mice were euthanized when morbid or weight loss ≥20% was observed. Tumors were measured with a caliper twice weekly until final sacrifice. When a tumor size reached approximately 3000 mm^3 or when there were animal health issues (40% area of a tumor ulcerated), animals were euthanized, and date of death recorded. Solid tumor volumes were estimated from two-dimensional tumor measurements and calculated according to the following equation:
Animal body weight included the tumor weight.

| Structure (SMILES) | Tumor volume changes from baseline: Median ([1]; Day 4) | Tumor volume changes from baseline: Median ([1]; Day 7) | Tumor volume changes from baseline: Median ([1]; Day 11) | Tumor volume changes from baseline: Median ([1]; Day 14) | Tumor volume changes from baseline: Median ([1]; Day 18) | Tumor volume changes from baseline: Median ([1]; Day 21) | Tumor volume changes from baseline: Median ([1]; Day 25) | Tumor volume changes from baseline: Median ([1]; Day 28) | Regressions Complete [1] | Regressions Partial [1] | Biological Interpretation [1] | Median % of regressions on day 28 [1] | ΔT/ΔC in % at day 28 [1] | Drug-related body weight loss/animal death [2] |
| --- | --- | --- | --- | --- | --- | --- | --- | --- | --- | --- | --- | --- | --- | --- |
| O=C(O)c1ccc2c(c1)CCCC(c1ccc(Cl)cc1Cl)=C2c1ccc(O[C@H]2CCN(CCCF)C2)cc1 [Amcenestrant, 6-(2,4-dichlorophenyl)-5-[4-[(3S)-1-(3-fluoropropyl)pyrrolidin-3-yl]oxyphenyl]-8,9-dihydro-7H-benzo[7]annulene-2-carboxylic acid] | 22.0 mm^3 | 32.5 mm^3 | 60.0 mm^3 | 76.5 mm^3 | 40.0 mm^3 | −2.0 mm^3 | −38.0 mm^3 | −42.0 mm^3 | 0/9 | 8/9 | Very active (ΔT/ΔC<0% is considered as tumor regression (very active)) | −13% | −13% | no drug-related body weight loss/animal death was observed |
| CO[C@H]1C[C@@H]2CC[C@@H](C)[C@@](O)(O2)C(=O)C(=O)N2CCCC[C@H]2C(=O)O[C@H]([C@H](C)C[C@@H]2CC[C@@H](OCCO)[C@H](OC)C2)CC(=O)[C@H](C)/C=C(\C)[C@@H](O)[C@@H](OC)C(=O)[C@H](C)C[C@H](C)/C=C/C=C/C=C/1C [Everolimus] | 28.5 mm^3 | 48.0 mm^3 | 65.0 mm^3 | 81.5 mm^3 | 10.0 mm^3 | −48.0 mm^3 | −47.0 mm^3 | −53.0 mm^3 | 0/6 | 5/6 | Very active (ΔT/ΔC<0% is considered as tumor regression (very active)) | −17% | −17% | no drug-related body weight loss/animal death was observed |

Source: patent US20240197692A1, “Combination Comprising Everolimus and Amcenestrant” (Sanofi, priority 2021, published 2024)
